The target of series [1] is T1, Lysine-specific demethylase 5A (Homo sapiens, UniProt P29375). As to the kind of experiment: Inhibition of recombinant human N-terminal FLAG-tagged KDM5A expressed in baculovirus infected Sf9 insect cells using H3K4me3 peptide as substrate after 30 to 45 mins by TR-FRET assay.
Series [2] addresses Lysine-specific histone demethylase 1A (Homo sapiens, UniProt O60341). As to the kind of experiment: Inhibition of KDM1A (unknown origin).
Series [3] has as its target T2, Lysine-specific demethylase 2B (Homo sapiens, UniProt Q8NHM5).
T2 sequence (Q8NHM5 whole entry): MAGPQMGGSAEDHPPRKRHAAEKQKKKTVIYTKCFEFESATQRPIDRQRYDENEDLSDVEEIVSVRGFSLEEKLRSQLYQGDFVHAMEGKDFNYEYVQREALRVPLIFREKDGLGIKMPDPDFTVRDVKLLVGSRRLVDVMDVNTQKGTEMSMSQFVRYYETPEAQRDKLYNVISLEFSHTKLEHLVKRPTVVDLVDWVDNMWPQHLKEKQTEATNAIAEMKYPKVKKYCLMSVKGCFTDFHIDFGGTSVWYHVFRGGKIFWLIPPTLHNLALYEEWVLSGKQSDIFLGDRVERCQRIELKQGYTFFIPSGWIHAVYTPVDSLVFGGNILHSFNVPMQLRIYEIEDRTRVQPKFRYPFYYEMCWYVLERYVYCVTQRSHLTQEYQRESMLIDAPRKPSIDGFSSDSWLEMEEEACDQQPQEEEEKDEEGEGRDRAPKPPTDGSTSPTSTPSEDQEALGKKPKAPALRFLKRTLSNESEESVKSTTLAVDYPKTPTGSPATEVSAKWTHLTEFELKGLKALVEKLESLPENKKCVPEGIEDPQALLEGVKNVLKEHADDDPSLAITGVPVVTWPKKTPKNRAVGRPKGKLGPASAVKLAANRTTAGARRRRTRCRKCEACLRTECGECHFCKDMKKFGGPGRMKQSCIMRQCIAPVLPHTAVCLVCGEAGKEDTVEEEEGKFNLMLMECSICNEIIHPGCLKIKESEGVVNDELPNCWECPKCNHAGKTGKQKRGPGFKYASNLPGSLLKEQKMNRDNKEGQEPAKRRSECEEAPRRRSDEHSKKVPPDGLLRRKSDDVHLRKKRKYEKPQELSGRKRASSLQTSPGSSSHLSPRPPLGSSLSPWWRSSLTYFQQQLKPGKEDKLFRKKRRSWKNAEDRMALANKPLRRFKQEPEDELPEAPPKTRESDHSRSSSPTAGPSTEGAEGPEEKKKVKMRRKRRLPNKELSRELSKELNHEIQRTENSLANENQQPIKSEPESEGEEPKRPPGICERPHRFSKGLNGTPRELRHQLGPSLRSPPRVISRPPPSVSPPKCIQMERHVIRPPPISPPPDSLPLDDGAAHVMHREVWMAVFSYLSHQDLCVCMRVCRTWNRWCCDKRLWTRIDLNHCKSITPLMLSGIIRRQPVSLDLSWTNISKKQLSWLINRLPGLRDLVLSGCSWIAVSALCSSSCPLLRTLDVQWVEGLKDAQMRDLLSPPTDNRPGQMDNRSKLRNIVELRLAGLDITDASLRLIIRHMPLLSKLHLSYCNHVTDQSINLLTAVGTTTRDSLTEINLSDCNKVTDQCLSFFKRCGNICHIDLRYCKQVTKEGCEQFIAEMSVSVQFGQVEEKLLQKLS
Kind of series: Inhibition of recombinant human N-terminal FLAG-tagged KDM2B expressed in baculovirus infected Sf9 insect cells using H3K36me2 peptide as substrate after 30 to 45 mins by TR-FRET assay.

The target of series [4] is Lysine-specific demethylase 3B (Homo sapiens, UniProt Q7LBC6). Kind of series: Inhibition of recombinant human N-terminal FLAG-tagged KDM3B expressed in baculovirus infected Sf9 insect cells using H3K9me1 peptide as substrate after 30 to 45 mins by TR-FRET assay. In general terms: TR-FRET usually uses a lanthanide donor and a delayed reading to cut background.
Chain of Lysine-specific demethylase 3B (Q7LBC6 whole entry): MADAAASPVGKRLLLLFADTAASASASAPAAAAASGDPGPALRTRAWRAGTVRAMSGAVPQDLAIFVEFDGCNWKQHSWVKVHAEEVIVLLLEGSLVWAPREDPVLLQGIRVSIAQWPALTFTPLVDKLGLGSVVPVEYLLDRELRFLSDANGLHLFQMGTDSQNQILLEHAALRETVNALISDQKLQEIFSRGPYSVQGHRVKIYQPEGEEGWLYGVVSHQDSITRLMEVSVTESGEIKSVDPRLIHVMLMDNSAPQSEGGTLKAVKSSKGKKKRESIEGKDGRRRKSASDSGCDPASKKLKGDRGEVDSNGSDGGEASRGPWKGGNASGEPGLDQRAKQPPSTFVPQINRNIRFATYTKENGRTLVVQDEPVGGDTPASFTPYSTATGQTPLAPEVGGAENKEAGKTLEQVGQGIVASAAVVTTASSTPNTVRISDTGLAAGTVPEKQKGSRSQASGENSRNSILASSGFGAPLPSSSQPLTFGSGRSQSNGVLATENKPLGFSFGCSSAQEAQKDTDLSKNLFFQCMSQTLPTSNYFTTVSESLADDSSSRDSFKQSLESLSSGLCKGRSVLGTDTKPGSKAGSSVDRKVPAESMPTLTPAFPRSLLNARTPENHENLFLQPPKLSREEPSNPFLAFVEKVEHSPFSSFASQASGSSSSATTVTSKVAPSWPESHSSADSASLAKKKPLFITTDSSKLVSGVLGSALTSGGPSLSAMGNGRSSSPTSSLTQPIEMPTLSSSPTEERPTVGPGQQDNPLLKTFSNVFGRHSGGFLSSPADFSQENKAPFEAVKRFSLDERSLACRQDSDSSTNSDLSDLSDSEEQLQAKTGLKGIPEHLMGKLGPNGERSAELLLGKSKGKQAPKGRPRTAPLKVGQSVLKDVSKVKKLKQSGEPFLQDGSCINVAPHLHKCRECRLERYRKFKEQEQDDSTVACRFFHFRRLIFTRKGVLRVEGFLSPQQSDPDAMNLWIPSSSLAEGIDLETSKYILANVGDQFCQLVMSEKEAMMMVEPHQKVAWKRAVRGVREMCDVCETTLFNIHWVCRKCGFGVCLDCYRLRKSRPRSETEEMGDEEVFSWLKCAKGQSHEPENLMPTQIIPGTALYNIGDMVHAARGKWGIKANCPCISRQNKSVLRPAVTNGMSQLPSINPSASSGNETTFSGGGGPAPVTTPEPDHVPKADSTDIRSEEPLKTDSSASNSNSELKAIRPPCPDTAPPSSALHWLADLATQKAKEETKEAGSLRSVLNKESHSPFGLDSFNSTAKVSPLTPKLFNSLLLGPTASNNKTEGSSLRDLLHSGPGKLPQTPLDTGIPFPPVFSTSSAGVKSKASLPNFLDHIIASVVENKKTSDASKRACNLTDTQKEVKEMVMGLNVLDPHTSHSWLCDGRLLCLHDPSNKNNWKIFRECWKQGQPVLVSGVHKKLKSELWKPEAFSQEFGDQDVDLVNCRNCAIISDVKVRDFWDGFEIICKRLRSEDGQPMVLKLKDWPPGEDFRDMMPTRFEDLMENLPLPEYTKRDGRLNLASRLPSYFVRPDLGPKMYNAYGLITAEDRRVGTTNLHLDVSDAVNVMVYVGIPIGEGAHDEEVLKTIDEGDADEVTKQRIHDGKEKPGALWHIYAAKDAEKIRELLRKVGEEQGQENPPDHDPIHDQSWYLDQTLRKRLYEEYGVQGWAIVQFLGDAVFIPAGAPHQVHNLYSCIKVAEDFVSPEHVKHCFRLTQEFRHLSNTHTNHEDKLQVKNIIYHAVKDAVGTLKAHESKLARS
Series [5] addresses T3, Lysine-specific demethylase 4C (Homo sapiens, UniProt Q9H3R0).
T3 sequence (Q9H3R0 whole entry): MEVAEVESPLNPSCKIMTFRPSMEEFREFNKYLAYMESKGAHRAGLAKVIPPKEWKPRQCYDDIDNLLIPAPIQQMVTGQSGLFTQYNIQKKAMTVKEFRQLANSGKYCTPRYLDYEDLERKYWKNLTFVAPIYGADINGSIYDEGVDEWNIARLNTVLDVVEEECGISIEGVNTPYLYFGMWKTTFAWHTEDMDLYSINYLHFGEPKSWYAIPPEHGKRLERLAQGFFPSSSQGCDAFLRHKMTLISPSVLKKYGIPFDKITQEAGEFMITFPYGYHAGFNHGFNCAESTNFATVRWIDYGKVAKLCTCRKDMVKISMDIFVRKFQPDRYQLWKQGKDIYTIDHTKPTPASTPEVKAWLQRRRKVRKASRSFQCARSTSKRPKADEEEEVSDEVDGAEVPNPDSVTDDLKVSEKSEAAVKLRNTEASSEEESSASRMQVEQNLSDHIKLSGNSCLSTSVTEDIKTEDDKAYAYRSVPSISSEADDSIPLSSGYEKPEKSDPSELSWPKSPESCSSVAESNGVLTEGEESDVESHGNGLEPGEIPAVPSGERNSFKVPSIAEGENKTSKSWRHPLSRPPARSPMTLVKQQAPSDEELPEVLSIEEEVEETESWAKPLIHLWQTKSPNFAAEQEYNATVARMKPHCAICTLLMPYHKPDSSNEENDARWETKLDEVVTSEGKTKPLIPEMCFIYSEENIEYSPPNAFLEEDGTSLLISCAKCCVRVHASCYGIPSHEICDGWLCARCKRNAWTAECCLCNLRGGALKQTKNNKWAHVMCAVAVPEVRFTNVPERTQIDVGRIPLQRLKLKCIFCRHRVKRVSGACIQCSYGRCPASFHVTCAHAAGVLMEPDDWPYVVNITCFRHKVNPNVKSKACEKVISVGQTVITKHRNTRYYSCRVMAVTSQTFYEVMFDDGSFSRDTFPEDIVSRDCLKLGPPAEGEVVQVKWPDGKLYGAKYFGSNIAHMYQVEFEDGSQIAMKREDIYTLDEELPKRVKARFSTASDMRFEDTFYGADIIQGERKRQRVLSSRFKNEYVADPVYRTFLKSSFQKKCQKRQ
Kind of series: Inhibition of recombinant human N-terminal FLAG-tagged KDM4C expressed in baculovirus infected Sf9 insect cells using H3K9me3 peptide as substrate after 30 to 45 mins by TR-FRET assay.

The target in series [6] is Lysine-specific demethylase 6A (Homo sapiens, UniProt O15550). As to the kind of experiment: Inhibition of recombinant human N-terminal FLAG-tagged KDM6A expressed in baculovirus infected Sf9 insect cells using H3K27me3 peptide as substrate after 30 to 45 mins by TR-FRET assay.
Chain of Lysine-specific demethylase 6A (O15550 whole entry): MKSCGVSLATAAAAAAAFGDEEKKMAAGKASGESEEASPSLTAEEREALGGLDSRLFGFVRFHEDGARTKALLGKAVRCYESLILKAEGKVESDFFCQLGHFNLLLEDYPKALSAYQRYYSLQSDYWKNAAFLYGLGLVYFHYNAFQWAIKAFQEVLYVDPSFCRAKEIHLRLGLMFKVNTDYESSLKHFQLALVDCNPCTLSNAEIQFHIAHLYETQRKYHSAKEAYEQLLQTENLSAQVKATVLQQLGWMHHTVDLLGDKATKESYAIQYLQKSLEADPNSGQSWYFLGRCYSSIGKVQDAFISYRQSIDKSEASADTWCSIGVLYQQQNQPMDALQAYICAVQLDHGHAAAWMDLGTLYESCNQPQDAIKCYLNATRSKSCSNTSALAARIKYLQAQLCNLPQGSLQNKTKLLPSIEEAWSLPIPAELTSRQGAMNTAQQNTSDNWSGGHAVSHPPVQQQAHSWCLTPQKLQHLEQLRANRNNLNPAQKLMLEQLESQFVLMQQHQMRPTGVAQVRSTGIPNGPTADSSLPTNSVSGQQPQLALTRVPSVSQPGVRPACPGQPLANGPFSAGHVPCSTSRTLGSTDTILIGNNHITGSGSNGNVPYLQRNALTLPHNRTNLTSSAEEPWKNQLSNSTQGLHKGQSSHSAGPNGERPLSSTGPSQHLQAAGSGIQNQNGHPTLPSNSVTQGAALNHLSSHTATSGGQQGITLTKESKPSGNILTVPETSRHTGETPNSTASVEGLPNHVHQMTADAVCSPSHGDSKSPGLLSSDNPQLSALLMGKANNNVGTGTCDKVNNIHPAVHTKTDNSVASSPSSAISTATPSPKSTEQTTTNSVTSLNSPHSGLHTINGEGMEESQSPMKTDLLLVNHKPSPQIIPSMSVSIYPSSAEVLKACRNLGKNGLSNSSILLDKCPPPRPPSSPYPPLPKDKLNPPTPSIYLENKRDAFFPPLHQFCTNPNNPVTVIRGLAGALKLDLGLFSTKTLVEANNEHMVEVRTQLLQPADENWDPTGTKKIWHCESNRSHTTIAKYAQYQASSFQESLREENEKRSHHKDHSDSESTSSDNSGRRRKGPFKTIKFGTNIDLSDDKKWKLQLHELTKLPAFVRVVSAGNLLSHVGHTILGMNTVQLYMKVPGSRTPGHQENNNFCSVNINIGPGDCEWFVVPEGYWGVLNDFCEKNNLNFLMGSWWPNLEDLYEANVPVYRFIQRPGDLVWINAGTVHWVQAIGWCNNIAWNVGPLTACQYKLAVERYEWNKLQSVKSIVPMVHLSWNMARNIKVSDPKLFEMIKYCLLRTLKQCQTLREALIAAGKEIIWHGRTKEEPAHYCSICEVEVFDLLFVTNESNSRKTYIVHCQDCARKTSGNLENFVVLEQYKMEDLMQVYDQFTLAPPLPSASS
Series [7] concerns the target Histone lysine demethylase PHF8 (Homo sapiens, UniProt Q9UPP1). As to the kind of experiment: Inhibition of recombinant human N-terminal FLAG-tagged KDM7B expressed in baculovirus infected Sf9 insect cells using H3K9me1 peptide as substrate after 30 to 45 mins by TR-FRET assay.
Series [8] concerns the target T1, Lysine-specific demethylase 5A. As to the kind of experiment: Inhibition of KDM5A in human PC9 cells assessed as increase in H3K4me3 level after 5 days by mass-spectrometric method. The series is classed as cell-based.
The nature of series [9]: Lipophilicity, log D of the compound at pH 7.4. The following applies: buffer. The series is classed as physicochemical.
Series [10] can be described thus: Kinetic solubility of the compound. The series is classed as physicochemical. The following applies: read-out: Kinetic_solubility.
Series [11] can be described thus: Clearance in CD-1 mouse plasma at 1 mg/kg, iv or 5 mg/kg, po. Type of series: ADME, organism-based.
Series [12] can be described thus: Protein binding in human plasma. The following applies: read-out: PPB (converted). The series is classed as ADME, cell-free.
Series [13] in a line: Protein binding in rat plasma. The series is classed as ADME, cell-free. The note with it: read-out: PPB (converted).
Series [14] in a line: Protein binding in mouse plasma. Type of series: ADME, cell-free. The following applies: read-out: PPB (converted).
A short description of series [15]: Half-life in CD-1 mouse plasma at 1 mg/kg, iv or 5 mg/kg, po. The series is classed as ADME, organism-based.
The nature of series [16]: Volume of distribution in CD-1 mouse plasma at 1 mg/kg, iv or 5 mg/kg, po. The series is classed as ADME, organism-based.
Series [17] in a line: Oral bioavailability in CD-1 mouse at 5 mg/kg. Type of series: ADME, organism-based. The following applies: in vivo.
Series [18] can be described thus: Hepatic clearance in human liver microsomes. The series is classed as ADME, microsome.
Series [19] can be described thus: Hepatic clearance in rat liver microsomes. The series is classed as ADME, microsome. (In general: Liver microsomes are a subcellular fraction often used to study metabolism.)
Series [20] can be described thus: Hepatic clearance in mouse liver microsomes. Type of series: ADME, microsome.
A short description of series [21]: Hepatic clearance in human hepatocytes. The series is classed as ADME, cell-based, Hepatocyte.
A short description of series [22]: Hepatic clearance in rat hepatocytes. The series is classed as ADME, cell-based, Hepatocyte.
The nature of series [23]: Hepatic clearance in mouse hepatocytes. The series is classed as ADME, cell-based, Hepatocyte.

Usually pIC50 stands for −log10 of the IC50, conventionally taken in molar units. For orientation: pEC50 means −log10 of the EC50, conventionally taken in molar units. As usually defined, the logD is the decadic logarithm of the distribution of all forms, ionised or not, between an organic phase and buffer at a given pH. Usually half-life stands for the time needed for the level to fall by half in the phase considered. High values mean slow loss, low ones fast loss. The bioavailability is the share of a dose that reaches the circulation, judged against a reference dose that is usually intravenous.

pEC50, pIC50: −log10 of the molar value. Values after ≈ are worked out from the molar mass of the structure shown.

T1 sequence (P29375 whole entry): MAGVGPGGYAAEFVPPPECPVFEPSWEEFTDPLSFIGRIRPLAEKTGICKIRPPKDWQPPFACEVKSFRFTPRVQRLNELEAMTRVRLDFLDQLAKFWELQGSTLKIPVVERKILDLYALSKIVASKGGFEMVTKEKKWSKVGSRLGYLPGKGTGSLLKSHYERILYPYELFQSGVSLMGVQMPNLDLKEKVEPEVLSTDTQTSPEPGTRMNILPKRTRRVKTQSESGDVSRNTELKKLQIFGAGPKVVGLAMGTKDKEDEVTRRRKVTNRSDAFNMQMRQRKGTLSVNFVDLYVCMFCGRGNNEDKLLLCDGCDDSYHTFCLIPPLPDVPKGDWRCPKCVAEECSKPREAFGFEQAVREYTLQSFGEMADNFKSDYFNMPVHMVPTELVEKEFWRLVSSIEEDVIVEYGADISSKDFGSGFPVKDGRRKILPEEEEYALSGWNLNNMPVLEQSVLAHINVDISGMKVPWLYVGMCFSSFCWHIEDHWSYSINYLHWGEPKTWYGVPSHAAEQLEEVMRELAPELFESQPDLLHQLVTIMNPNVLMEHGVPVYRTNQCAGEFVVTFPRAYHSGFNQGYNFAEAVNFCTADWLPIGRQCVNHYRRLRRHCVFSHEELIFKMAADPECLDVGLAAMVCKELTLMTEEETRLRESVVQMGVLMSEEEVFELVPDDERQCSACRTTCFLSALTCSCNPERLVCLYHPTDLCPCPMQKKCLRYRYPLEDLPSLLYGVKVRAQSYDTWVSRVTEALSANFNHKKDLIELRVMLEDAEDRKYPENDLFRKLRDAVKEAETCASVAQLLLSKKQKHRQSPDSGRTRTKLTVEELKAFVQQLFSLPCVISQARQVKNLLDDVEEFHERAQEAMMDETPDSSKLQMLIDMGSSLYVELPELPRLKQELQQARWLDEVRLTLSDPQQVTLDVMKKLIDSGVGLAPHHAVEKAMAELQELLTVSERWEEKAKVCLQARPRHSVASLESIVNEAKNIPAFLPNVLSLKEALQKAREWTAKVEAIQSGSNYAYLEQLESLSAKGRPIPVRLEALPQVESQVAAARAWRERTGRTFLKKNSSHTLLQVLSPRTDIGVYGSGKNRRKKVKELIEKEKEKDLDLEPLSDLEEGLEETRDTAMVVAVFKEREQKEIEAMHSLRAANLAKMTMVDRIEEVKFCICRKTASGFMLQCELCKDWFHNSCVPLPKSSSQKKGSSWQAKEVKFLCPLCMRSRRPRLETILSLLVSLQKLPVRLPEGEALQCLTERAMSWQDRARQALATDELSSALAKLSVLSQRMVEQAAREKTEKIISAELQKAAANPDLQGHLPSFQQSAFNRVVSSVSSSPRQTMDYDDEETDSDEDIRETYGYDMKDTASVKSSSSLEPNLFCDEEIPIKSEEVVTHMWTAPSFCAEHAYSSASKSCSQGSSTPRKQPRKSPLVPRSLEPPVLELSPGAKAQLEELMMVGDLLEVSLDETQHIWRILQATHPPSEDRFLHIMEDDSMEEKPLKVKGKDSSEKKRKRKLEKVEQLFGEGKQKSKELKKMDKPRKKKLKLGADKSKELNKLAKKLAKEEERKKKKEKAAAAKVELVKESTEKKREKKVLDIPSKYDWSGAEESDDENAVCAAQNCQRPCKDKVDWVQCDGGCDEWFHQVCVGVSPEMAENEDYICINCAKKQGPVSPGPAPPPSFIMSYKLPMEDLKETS

As for `Cc1cc(-c2cnn(C)c2)cc(C2CCN(C(=O)c3cc(C(C)C)n[nH]3)C2)n1` (racemic), the negative logarithm of the IC50 (pIC50) was 6.59 in [1]; under 4.60 in [2]; under 4.60 in series [3]; under 4.60 in series [4]; under 4.60 in [5]; under 4.60 in [6]. Moreover, in [7], the pIC50 was under 4.60. In addition, in series [8] (read-out: EC50), the pEC50 is under 4.52. In [9], this molecule had a log distribution coefficient (logD) of 2.8. The solubility kinetic in series [10] came to 56 µM (≈ 21.2 µg/mL).
On to `Cc1cc(-c2cnn(C)c2)cc(C2CCN(C(=O)c3cc(C(C)C)n[nH]3)C2)n1` (stereo in doubt; 9), for which the clearance in [11] turned out to be 99.9 mL/min/kg. The results for the pIC50 in series [1] and in series [5] were 6.80 and 4.88, respectively. Also, in [8], the negative-log EC50 (pEC50) was under 4.52. For the same molecule, the fraction unbound is 0.045 in series [12], 0.027 in series [13] and 0.043 in series [14]. In series [15], this molecule had a half-life of 18 min. In [16], this molecule showed a Vd of 2.1 L/kg. The same molecule registered a bioavailability in series [17] of 94%. In addition, the CLhep predicted in [18] was 7 mL/min/kg; in series [19], 37 mL/min/kg; in series [20], 69 mL/min/kg; in series [21], 12 mL/min/kg; in [22] it was 39 mL/min/kg; in [23] it was 66 mL/min/kg.

The record behind these values is ChEMBL document CHEMBL4033700, “From a novel HTS hit to potent, selective, and orally bioavailable KDM5 inhibitors” (Bioorg Med Chem Lett, 2017).
